From ChEMBL document CHEMBL1126797 (J Med Chem, 1993)
Blank lines part the entries; values can stand above or below the compound they belong to.

Assays:
[1] = molecular target: T1, DNA topoisomerase 1 (Homo sapiens, UniProt P11387); test: Inhibition of Topoisomerase I by cleavage complex formation in human HL-60 cells; type: cell-based
T1 sequence (P11387 whole entry): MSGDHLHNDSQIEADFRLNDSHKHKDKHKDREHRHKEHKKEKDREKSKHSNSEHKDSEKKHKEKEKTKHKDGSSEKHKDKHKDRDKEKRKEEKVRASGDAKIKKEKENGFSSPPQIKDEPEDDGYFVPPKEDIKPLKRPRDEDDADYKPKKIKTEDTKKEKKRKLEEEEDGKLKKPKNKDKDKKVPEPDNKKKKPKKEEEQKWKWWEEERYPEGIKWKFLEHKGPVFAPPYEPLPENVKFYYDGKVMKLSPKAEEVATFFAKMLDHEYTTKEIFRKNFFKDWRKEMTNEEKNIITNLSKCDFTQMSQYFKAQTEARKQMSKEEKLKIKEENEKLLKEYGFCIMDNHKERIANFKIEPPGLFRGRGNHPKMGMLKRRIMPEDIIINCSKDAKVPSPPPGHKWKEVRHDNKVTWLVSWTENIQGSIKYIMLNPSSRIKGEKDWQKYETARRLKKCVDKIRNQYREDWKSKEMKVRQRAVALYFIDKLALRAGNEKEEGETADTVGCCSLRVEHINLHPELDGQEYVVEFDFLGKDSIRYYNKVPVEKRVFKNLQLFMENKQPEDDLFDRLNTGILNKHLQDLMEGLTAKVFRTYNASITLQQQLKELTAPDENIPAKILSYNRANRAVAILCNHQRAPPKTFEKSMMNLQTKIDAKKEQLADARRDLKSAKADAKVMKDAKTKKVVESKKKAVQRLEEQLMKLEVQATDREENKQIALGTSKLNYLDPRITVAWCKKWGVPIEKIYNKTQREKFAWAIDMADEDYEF

[2] = test system: L1210; test: Log of initial tumor cell population minus log of tumor cell population at end of treatment after ip injection on days 1 and 5; type: functional, Mus musculus
[3] = test system: L1210; test: Log of initial tumor cell population minus log of tumor cell population at end of treatment after iv drug dosing on hours 1 and 5; type: functional, Mus musculus
[4] = test system: L1210; test: Toxic dose in L1210 murine lymphoid leukemia after ip injection on days 1 and 5 at 10 mg/kg; NT means not toxic; type: toxicity, organism-based; set-up: dose 10 mg/kg, route intraperitoneal; conditions: mouse, in vivo
[5] = test system: L1210; test: Toxic dose in L1210 murine lymphoid leukemia after iv drug dosing on hours 1 and 5; NT means not toxic at 5 mg/Kg; type: toxicity, organism-based; conditions: mouse, in vivo
[6] = molecular target: T1, DNA topoisomerase 1; test: Inhibition of Topoisomerase I by cleavage complex formation in intact human HL-60 cells; type: cell-based
[7] = test system: Mus musculus; test: Highest active dose in L1210 lymphoid leukemic mice after ip injection on days 1 and 5 at dose of 10 mg/kg; type: functional; conditions: route intraperitoneal
[8] = test system: Mus musculus; test: Highest active dose in L1210 lymphoid leukemic mice after iv drug dosing on hours 1 and 5 at dose range of 2.5-5 mg/kg; type: functional
[9] = test system: Mus musculus; test: Median survival time of treated/control animals x 100 after ip injection on days 1 and 5; type: functional
[10] = test system: Mus musculus; test: Median survival time of treated/control animals x 100 after iv drug dosing on hours 1 and 5; type: functional
[11] = test system: L1210; test: Log of initial tumor cell population minus log of tumor cell population at end of treatment after i.v. drug dosing on hours 1 and 5; type: functional, Mus musculus
[12] = test system: L1210; test: Toxic dose in L1210 murine lymphoid leukemia at 20 mg/kg after i.v. drug dosing on hours 1 and 5; NT means not toxic; type: toxicity, organism-based; set-up: dose 20 mg/kg, route intravenous; conditions: mouse, in vivo, iv
[13] = test system: Mus musculus; test: Highest active dose in L1210 lymphoid leukemic mice at range of 1.25-20 mg/kg after i.v. drug dosing on hours 1 and 5; type: functional
[14] = test system: Mus musculus; test: Number of L1210 mice cured after i.v. drug dosing on hours 1 and 5; type: functional
[15] = species on record: Mus musculus; test: Percent median survival time of treated leukemic mice compared to control; type: functional
[16] = Number of metastases in K1735-M2 murine melanoma cells after subcutaneous administration on days1,4,6,8 at dose of 6 mg/kg; type: functional, Mus musculus
[17] = test system: L1210; test: Relative survival in L1210 murine lymphoid leukemia cells after subcutaneous administration on days1,4,6,8 at dose of 6 mg/kg; type: functional, Mus musculus
[18] = test system: L1210; test: Toxic dose in L1210 murine lymphoid leukemia at dose of 20 mg/kg; NT means not toxic; type: toxicity, organism-based; set-up: dose 20 mg/kg; conditions: mouse, in vivo
[19] = test system: Mus musculus; test: Highest active dose in L1210 lymphoid leukemic mice after i.v. drug dosing on hours 1 and 5 at dose range of 2.85-10 mg/kg; type: functional
[20] = test system: Mus musculus; test: Relative survival in RAW117-H10 cells implanted mice in comparison to control at dose of 6 mg/kg; type: functional
[21] = test system: Mus musculus; test: Median survival time of treated/control animals x 100 after i.v. drug dosing on hours 1 and 5; type: functional
[22] = Number of metastases in K1735-M2 murine melanoma cells after subcutaneous administration on days1,4,6,8 at dose of 3 mg/kg; type: functional, Mus musculus
[23] = test system: Mus musculus; test: Relative survival in L1210 lymphoid leukemic mice after subcutaneous administration on days 1,4,6,8 at dose of 3 mg/kg; type: functional
[24] = test system: Mus musculus; test: Relative survival in RAW117-H10 cells implanted mice in comparison to control at dose of 3 mg/kg; type: functional
[25] = test system: HT-29; test: Tumor volume in HT-29 cells after subcutaneous administration on days 16,20,23,27,30,34,37,41,44,48 at dose of 2.5 mg/kg; type: functional, Homo sapiens
[26] = Number of metastases in K1735-M2 murine melanoma cells after subcutaneous administration at dose of 2.5 mg/kg; type: functional, Mus musculus
[27] = test system: L1210; test: Log of initial tumor cell population minus log of tumor cell population at end of treatment in L1210 lymphoid leukemic mice; type: functional, Mus musculus
[28] = species on record: Mus musculus; test: Toxic dose in L1210 lymphoid leukemic mice; type: toxicity, organism-based; conditions: in vivo
[29] = test system: Mus musculus; test: Highest active dose in L1210 lymphoid leukemic mice at dose range of 0.6-5 mg/kg; type: functional
[30] = species on record: Mus musculus; test: Number of L1210 lymphoid leukemic mice cured out of […]; type: functional
[31] = test system: Mus musculus; test: Relative survival in L1210 lymphoid leukemic mice after subcutaneous administration on days 1,4,6,8 at dose of 4 mg/kg; type: functional
[32] = test system: Mus musculus; test: Relative survival in RAW117-H10 cells implanted mice in comparison to control at dose of 2.5 mg/kg; type: functional

Structure (SMILES): CCC1(O)C(=O)OCc2c1cc1n(c2=O)Cc2cc3cc(C(=O)O)ccc3nc2-1 (configuration not stated)
- IC50 [1]: 1000 nM

Structure (SMILES): CCC(O)(C(=O)O)c1cc2n(c(=O)c1CO)Cc1cc3c(N)cccc3nc1-2 (racemic)
- IC50 [1]: 13000 nM

Structure (SMILES): CCC1(O)C(=O)OCc2c1cc1n(c2=O)Cc2cc3c4c(ccc3nc2-1)OCO4 (racemic)
- IC50 [1]: 3800 nM

Structure (SMILES): CCC1(O)C(=O)OCc2c1cc1n(c2=O)Cc2cc3c([N+](=O)[O-])c4c(cc3nc2-1)OCO4 (racemic)
- IC50 [1]: 220 nM

Structure (SMILES): O=C1OCc2c(cc3n(c2=O)Cc2cc4ccccc4nc2-3)C1(O)CCO (racemic)
- IC50 [1]: 9600 nM

Structure (SMILES): CCC1(OC(=O)CN)C(=O)OCc2c1cc1n(c2=O)Cc2cc3c(N)cccc3nc2-1.Cl (racemic)
- KE [2]: -1
- KE [3]: 1.67
- Toxic dose [4]: Non-toxic
- Toxic dose [5]: Not toxic
- IC50 [6]: 6800 nM
- Highest active dose [7]: 10 mg/kg
- Highest active dose [8]: 5 mg/kg
- T/C [9]: 132%
- T/C [10]: 168%
- IC50 [1]: 5500 nM

Structure (SMILES): CCC1(O)C(=O)OCc2c1cc1n(c2=O)Cc2cc3c(NC(=O)CN)c4c(cc3nc2-1)OCO4 (racemic)
- IC50 [6]: > 30000 nM
- IC50 [1]: 260 nM

Structure (SMILES): CCC1(OC(=O)CN)C(=O)OCc2c1cc1n(c2=O)Cc2cc3cc(N)ccc3nc2-1.Cl (racemic)
- KE [11]: >5.97
- Toxic dose [12]: Non-toxic
- Highest active dose [13]: 20 mg/kg
- Cures [14]: 0
- T/C [15]: 225%

Structure (SMILES): CCC1(O)C(=O)OCc2c1cc1n(c2=O)Cc2cc3c(N)c(Br)cc(Br)c3nc2-1 (racemic)
- IC50 [1]: > 30000 nM

Structure (SMILES): CCC(O)(C(=O)O)c1cc2n(c(=O)c1CO)Cc1cc3ccccc3nc1-2 (racemic)
- IC50 [1]: 2000 nM

Structure (SMILES): CCC1(O)C(=O)OCc2c1cc1n(c2=O)Cc2cc3cc4c(cc3nc2-1)OCCO4 (racemic)
- IC50 [1]: 470 nM

Structure (SMILES): CCC1(O)C(=O)OCc2c1cc1n(c2=O)Cc2cccnc2-1 (racemic)
- IC50 [1]: > 30000 nM

Structure (SMILES): CCC(O)(C(=O)[O-])c1cc2n(c(=O)c1CO)Cc1cc3cc4c(cc3nc1-2)OCO4.[Na+] (racemic)
- Control [16]: 4%
- KE [11]: 4.79
- T/C [17]: 2.13
- Toxic dose [18]: Non-toxic
- Highest active dose [19]: 10 mg/kg
- T/C [20]: 1.32
- Cures [14]: 0
- T/C [21]: 157%
- IC50 [1]: 550 nM

Structure (SMILES): CCC1(O)C(=O)OCc2c1cc1n(c2=O)Cc2cc3c(N)c4c(cc3nc2-1)OCO4 (racemic)
- Control [22]: 25%
- IC50 [6]: 69 nM
- T/C [23]: 3
- T/C [24]: 1.6
- IC50 [1]: 76 nM

Structure (SMILES): CC1(O)C(=O)OCc2c1cc1n(c2=O)Cc2cc3ccccc3nc2-1 (racemic)
- IC50 [1]: 4000 nM

Structure (SMILES): CCC1(O)C(=O)OCc2c1cc1n(c2=O)Cc2cc3c(Cl)cccc3nc2-1 (racemic)
- IC50 [1]: 190 nM

Structure (SMILES): O=C1OCc2c(cc3n(c2=O)Cc2cc4ccccc4nc2-3)C1(O)CCBr (racemic)
- IC50 [1]: 3100 nM

Structure (SMILES): CCC1(O)C(=O)OCc2c1cc1n(c2=O)Cc2cc3c(OC)cccc3nc2-1 (racemic)
- IC50 [1]: 1600 nM

- IC50 [6]: 840 nM
- IC50 [1]: 440 nM
Structure (SMILES): CCC1(O)C(=O)OCc2c1cc1n(c2=O)Cc2cc3c(N)cccc3nc2-1 (racemic) [RS-9-Aminocamptothecin]

Structure (SMILES): CC[C@@]1(O)C(=O)OCc2c1cc1n(c2=O)Cc2cc3c(N)cccc3nc2-1 [9-AMINOCAMPTOTHECIN]
- Control [25]: 25%
- Control [26]: 73%
- KE [27]: 5.97
- Toxic dose [28]: 10 mg/kg
- Highest active dose [29]: 0.6 mg/kg
- Cures [30]: 3
- T/C [15]: 361%
- T/C [31]: 2.44
- T/C [32]: 1.15
- IC50 [1]: 110 nM

Structure (SMILES): CC[C@@]1(O)C(=O)OCc2c1cc1n(c2=O)Cc2cc3cc(O)ccc3nc2-1 [HYDROXYCAMPTOTHECIN]
- IC50 [1]: 110 nM
